Source: the supplement of paper PMC4862054
“And” between values parts separate entries of the source, which are not always exact repeats. Equal values may be shown once.

How the values were obtained:
Conditions in all cases: incubation time: 72 h
[1] = tested on: CAL-148; test: normalised response (% of control), CellTox Green; higher = less cell death (100 = DMSO, 0 = benzethonium chloride kill control)
Procedure, shortened: (§1)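 Breast cancer cell lines, seeded at 20 µl suspension per well, were incubated for 72 h in 384-well plates containing compound at 5 concentrations. These concentrations rose in 10-fold steps over a 10,000-fold range set for each compound. CellTox Green fluorescence (485/520 nm) was read, then CellTiter-Glo luminescence after 10 min at room temperature, and each plate was normalised to 0.1 % DMSO (100) and a positive kill control (0). Values are normalised signals, each at one concentration.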

[2] = tested on: HCC1143; test: as above
Procedure, shortened: as §1

[3] = tested on: CAL-120; test: as above
Procedure, shortened: as §1

[4] = tested on: MDA-MB-468; test: as above
Procedure, shortened: as §1

[5] = tested on: DU-4475; test: as above
Procedure, shortened: as §1

[6] = tested on: HCC1599; test: as above
Procedure, shortened: as §1

[7] = tested on: CAL-85-1; test: as above
Procedure, shortened: as §1

[8] = tested on: HCC1937; test: as above
Procedure, shortened: as §1

[9] = tested on: MFM-223; test: as above
Procedure, shortened: as §1

[10] = tested on: BT-549; test: as above
Procedure, shortened: as §1

[11] = tested on: BT-474; test: as above
Procedure, shortened: as §1

[12] = tested on: CAL-51; test: as above
Procedure, shortened: as §1

[13] = tested on: HDQ-P1; test: as above
Procedure, shortened: as §1

[14] = tested on: MDA-MB-436; test: as above
Procedure, shortened: as §1

[15] = tested on: MDA-MB-231; test: as above
Procedure, shortened: as §1

[16] = tested on: Hs578T; test: as above
Procedure, shortened: as §1

[17] = tested on: MDA-MB-453; test: as above
Procedure, shortened: as §1

[18] = tested on: MCF-10A; test: as above
Procedure, shortened: as §1

[19] = tested on: CAL-148; test: normalised response (% of control), CellTiter-Glo; higher = more viable cells (100 = DMSO, 0 = benzethonium chloride kill control)
Description: (§2)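 DSRT, 72 h incubation, CellTox Green / CellTiter-Glo readout. Signal is normalised to DMSO and benzethonium chloride controls. Value is the normalised response at the highest dose.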

[20] = tested on: HCC1143; test: as above
Description: as §2

[21] = tested on: CAL-120; test: as above
Description: as §2

[22] = tested on: MDA-MB-468; test: as above
Description: as §2

[23] = tested on: DU-4475; test: as above
Description: as §2

[24] = tested on: HCC1599; test: as above
Description: as §2

[25] = tested on: CAL-85-1; test: as above
Description: as §2

[26] = tested on: HCC1937; test: as above
Description: as §2

[27] = tested on: MFM-223; test: as above
Description: as §2

[28] = tested on: BT-549; test: as above
Description: as §2

[29] = tested on: SK-BR-3; test: as above
Description: as §2

[30] = tested on: BT-474; test: as above
Description: as §2

[31] = tested on: CAL-51; test: as above
Description: as §2

[32] = tested on: HDQ-P1; test: as above
Description: as §2

[33] = tested on: MDA-MB-436; test: as above
Description: as §2

[34] = tested on: MDA-MB-231; test: as above
Description: as §2

[35] = tested on: Hs578T; test: as above
Description: as §2

[36] = tested on: MDA-MB-453; test: as above
Description: as §2

[37] = tested on: MCF-10A; test: as above
Description: as §2

[38] = tested on: CAL-148; test: normalised viability (% of control), CellTiter-Blue; higher = more viable cells (about 100 = DMSO control)
Description: (§3)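 DSRT, CellTiter-Blue viability, 72 h incubation. Signal is normalised to DMSO and benzethonium chloride controls. Value is the normalised response at dose 6.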

[39] = tested on: DU-4475; test: as above
Description: as §3

[40] = tested on: CAL-85-1; test: as above
Description: as §3

[41] = tested on: CAL-51; test: as above
Description: as §3

[42] = tested on: MDA-MB-453; test: as above
Description: as §3

[43] = tested on: CAL-148; test: as above; remark: listed apart in the source
Description: (§4)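 DSRT, CellTiter-Blue viability, 72 h incubation. Signal is normalised to DMSO and benzethonium chloride controls. Value is the normalised response at dose 8.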

[44] = tested on: CAL-85-1; test: as above; remark: listed apart in the source
Description: as §4

[45] = tested on: CAL-51; test: as above; remark: listed apart in the source
Description: as §4

[46] = tested on: HDQ-P1; test: as above
Description: as §4

[47] = tested on: MDA-MB-453; test: as above; remark: listed apart in the source
Description: as §4

What does the source list for `CC(C)n1cnc2c(NCCc3ccc(O)cc3)nc(-c3csc4ccccc34)nc21` [StemRegenin 1] (10000 nM)?
normalised response [1]: 104%; normalised response [2]: 70.8%; normalised response [3]: 103%; normalised response [4]: 130%; normalised response [5]: 98.1%; normalised response [6]: 102%; normalised response [7]: 78.5%; normalised response [8]: 91.1%; normalised response [9]: 28.5%; normalised response [10]: 94.6%; normalised response [11]: 85.5%; normalised response [12]: 122%; normalised response [13]: 84.8%; normalised response [14]: 103%; normalised response [15]: 100%; normalised response [16]: -20%; normalised response [17]: 87.5%; normalised response [18]: 118%; normalised response [19]: 102%; normalised response [20]: 93.6%; normalised response [21]: 89.2%; normalised response [22]: 47.5%; normalised response [23]: 89.3%; normalised response [24]: 61.6%; normalised response [25]: 78.2%; normalised response [26]: 58.9%; normalised response [27]: 59.2%; normalised response [28]: 76.4%; normalised response [29]: 68.3%; normalised response [30]: 71.4%; normalised response [31]: 107%; normalised response [32]: 76.9%; normalised response [33]: 74%; normalised response [34]: 85.3%; normalised response [35]: 76.3%; normalised response [36]: 76.1%; normalised response [37]: 97.7%

For `O=C(CCCCCCC(=O)Nc1ccccc1)NO` [Vorinostat] (300 nM), which normalised viability [38] is on record?
The normalised viability was 85.6% and 94.9%.

And the normalised viability [39]?
The normalised viability was 97.4% and 88.9%.

And the normalised viability [40]?
Its normalised viability is 95.3% and 104%.

And the normalised viability [41]?
The normalised viability was 116% and 104%.

What about the normalised viability [42] of the same molecule?
The normalised viability was 82.8% and 81.7%.

For `O=C(CCCCCCC(=O)Nc1ccccc1)NO` [Vorinostat] (3000 nM), which normalised viability [43] is on record?
Its normalised viability is 49.7% and 59.7%.

What about the normalised viability [44] of the same molecule?
The normalised viability was 59.5% and 66.1%.

And the normalised viability [45]?
Its normalised viability is 101% and 94.8%.

And the normalised viability [46]?
The normalised viability was 68.1% and 62.5%.

And the normalised viability [47]?
The normalised viability was 12.2% and 9.84%.
